According to patent EP0506704B1, “USE OF ALKYL PHOSPHOLIPIDS AS ANTIVIRAL DRUGS, AS WELL AS NEW COMPOUNDS” (BOEHRINGER MANNHEIM GMBH, priority 1989, dated 1991):
≈ marks a conversion by molar mass, not a printed value.

Test system: HIV
Experiment: Anti-HIV activity in cell culture: inhibition of HIV replication, virus in supernatant quantified by reinfection of human fetal lung cells
Format: cell-based
Details: Human immunodeficiency virus 1; chronically HIV-infected human fetal lung cells; concentration causing 50 % inhibition of virus replication
Description: Die Verbindungen der vorliegenden Erfindung weisen eine antivirale Wirksamkeit auf und können somit beispielsweise zur Behandlung von HIV-bedingten Krankheiten oder Infektionen eingesetzt werden. Der Nachweis der Anti-HIV-Wirksamkeit erfolgt in Zell- oder Gewebekulturen, wobei die direkte Hemmung der HIV-Replikation gemessen wird.
Zunächst erfolgt eine Behandlung von HIV-infizierten humanen T-Lymphomzellen bzw. HIV-infizierten humanen fetalen Lungenzellen mit der zu untersuchenden Verbindung in Verdünnungsreihe. Anschließend erfolgt eine Quantifizierung der Virusmenge im Überstand durch Neuinfektion von humanen fetalen Lungenzellen. Die Abnahme der entstandenen HIV-positiven Zellkolonien gilt als direktes Maß für die antivirale Wirksamkeit der untersuchten Verbindung.
In der folgenden Tabelle sind diejenigen Konzentrationen angegeben, die eine 50 %-ige Hemmung der Virusreplikation bewirken (IC₅₀-Werte).

Structure (SMILES)	IC50 [µg/mL]
CCCCCCCCCCCCSC(CCCCCCCCCCCC)COP(=O)([O-])OCC[N+](C)(C)C (stereo not drawn) [Beispiel 1, 2-Dodecylmercapto-tetradecyl-1-phosphorsäure-monocholinester]	30 (≈ 51.7 µM)
CCCCCCCCCCCCSCC(CCCCCCCCCCC)COP(=O)([O-])OCC[N+](C)(C)C (stereo not drawn) [Beispiel 3, 2-Dodecylmercaptomethyl-tridecyl-1-phosphorsäure-monocholinester]	12 (≈ 20.7 µM)
CCCCCCCCCCCCOC(CCCCCCCCCCCC)COP(=O)([O-])OCC[N+](C)(C)C (stereo not drawn) [Beispiel 2, 2-Dodecyloxytetradecvl-1-phosphorsäure-monocholinester]	1 (≈ 1.77 µM)
